Reference: patent US20240398784A1, “C-LINKED ISOQUINOLINE AMIDES AS LRRK2 INHIBITORS, PHARMACEUTICAL COMPOSITIONS, AND USES THEREOF” (Merck Sharp & Dohme LLC, priority 2021, published 2024)

Biological target: LRRK2 G2019S (Homo sapiens, UniProt Q5S007, G2019S)
Test: LRRK2 G2019S Km ATP LanthaScreen assay
Assay type: biochemical
Details: read-out: LRRK2 pIC50 (converted)

Sequence of LRRK2 G2019S (Q5S007 whole entry G2019S): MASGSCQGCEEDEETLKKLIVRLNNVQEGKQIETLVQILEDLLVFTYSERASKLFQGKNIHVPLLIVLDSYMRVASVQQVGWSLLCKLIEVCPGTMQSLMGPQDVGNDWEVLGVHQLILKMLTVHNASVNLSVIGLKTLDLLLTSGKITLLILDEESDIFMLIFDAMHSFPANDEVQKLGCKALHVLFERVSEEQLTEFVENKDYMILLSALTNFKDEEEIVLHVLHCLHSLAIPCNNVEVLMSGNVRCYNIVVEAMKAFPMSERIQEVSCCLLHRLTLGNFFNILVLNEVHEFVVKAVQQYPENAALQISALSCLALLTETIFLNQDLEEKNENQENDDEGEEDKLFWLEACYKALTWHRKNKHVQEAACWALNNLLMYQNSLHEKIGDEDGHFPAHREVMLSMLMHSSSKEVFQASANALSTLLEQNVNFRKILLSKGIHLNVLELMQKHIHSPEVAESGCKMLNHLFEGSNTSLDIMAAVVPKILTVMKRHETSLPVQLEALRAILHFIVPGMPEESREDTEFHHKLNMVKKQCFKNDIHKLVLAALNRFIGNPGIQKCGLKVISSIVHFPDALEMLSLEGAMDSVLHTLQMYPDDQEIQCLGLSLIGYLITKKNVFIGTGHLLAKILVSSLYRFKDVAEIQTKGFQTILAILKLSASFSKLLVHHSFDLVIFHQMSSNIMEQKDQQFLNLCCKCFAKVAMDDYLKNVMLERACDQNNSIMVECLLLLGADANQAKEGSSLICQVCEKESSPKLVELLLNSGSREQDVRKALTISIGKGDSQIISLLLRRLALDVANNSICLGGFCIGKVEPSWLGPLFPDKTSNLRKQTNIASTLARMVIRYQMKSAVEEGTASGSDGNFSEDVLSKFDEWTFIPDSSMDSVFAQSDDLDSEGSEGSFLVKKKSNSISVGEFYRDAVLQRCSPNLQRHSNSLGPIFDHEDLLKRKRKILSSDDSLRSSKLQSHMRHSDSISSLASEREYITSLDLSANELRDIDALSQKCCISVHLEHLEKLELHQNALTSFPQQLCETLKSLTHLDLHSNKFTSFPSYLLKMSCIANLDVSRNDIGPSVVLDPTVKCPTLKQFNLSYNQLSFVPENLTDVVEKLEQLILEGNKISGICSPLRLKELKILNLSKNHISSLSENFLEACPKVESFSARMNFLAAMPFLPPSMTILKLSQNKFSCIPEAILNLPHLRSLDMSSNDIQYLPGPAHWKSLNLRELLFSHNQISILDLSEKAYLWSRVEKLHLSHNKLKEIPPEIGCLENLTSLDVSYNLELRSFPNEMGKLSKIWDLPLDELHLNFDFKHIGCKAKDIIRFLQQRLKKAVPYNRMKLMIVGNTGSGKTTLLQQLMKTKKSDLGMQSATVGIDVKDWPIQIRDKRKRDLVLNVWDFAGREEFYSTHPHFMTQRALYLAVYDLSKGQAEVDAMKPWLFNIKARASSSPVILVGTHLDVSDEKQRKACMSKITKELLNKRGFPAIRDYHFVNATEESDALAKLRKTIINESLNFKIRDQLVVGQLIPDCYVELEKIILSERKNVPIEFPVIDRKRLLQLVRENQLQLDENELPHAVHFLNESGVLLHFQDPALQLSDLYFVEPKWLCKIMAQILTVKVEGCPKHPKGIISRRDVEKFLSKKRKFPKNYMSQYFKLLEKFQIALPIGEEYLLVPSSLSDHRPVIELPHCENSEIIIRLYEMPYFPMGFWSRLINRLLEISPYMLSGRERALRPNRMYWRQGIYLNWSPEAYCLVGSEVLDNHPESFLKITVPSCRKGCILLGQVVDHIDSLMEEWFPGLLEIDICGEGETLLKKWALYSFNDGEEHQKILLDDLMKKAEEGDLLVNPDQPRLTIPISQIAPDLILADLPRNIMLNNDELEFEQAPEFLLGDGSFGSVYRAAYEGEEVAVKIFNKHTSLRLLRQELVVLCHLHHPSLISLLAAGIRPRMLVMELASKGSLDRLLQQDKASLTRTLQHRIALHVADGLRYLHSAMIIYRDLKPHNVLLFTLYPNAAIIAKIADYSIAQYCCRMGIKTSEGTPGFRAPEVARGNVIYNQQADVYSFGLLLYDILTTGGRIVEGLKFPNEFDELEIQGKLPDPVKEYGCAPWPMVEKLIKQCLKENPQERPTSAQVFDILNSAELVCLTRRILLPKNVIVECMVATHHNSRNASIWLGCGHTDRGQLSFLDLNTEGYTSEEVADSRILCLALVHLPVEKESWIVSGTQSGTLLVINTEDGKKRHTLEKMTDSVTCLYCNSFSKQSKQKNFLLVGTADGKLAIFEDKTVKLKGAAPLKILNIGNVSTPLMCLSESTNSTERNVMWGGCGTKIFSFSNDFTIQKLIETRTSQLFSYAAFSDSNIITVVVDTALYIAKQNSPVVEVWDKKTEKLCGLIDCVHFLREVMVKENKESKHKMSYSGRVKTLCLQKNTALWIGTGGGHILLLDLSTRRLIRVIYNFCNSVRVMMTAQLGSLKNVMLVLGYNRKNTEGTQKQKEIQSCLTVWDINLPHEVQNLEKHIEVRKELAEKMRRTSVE

Structure (SMILES)	IC50 [nM]
CCC1C(C(=O)Nc2cc3cc(C4CCN(C5(C)COCC5F)CC4)c(Cl)cc3cn2)C1c1ccn(C)n1 (stereo not shown) [Ex-2.86]	0.0813
CC1(C)CCC(C(=O)Nc2cc3cc(C4CCC(N5CCC(F)C5)CC4)c(Cl)cc3cn2)CO1 (single isomer, unassigned) [Ex-5.24, N-(7-chloro-6-(4-(3-fluoropyrrolidin-1-yl)cyclohexyl)isoquinolin-3-yl)-6,6-dimethyltetrahydro-2H-pyran-3-carboxamide]	4270
Cc1noc(C2CC2C(=O)Nc2cc3cc(C4CCN(C5(C)COCC5O)CC4)c(Cl)cc3cn2)n1 (single isomer, unassigned) [Ex-4.15, N-(7-chloro-6-(1-(4-hydroxy-3-methyltetrahydrofuran-3-yl)piperidin-4-yl)isoquinolin-3-yl)-2-(3-methyl-1,2,4-oxadiazol-5-yl)cyclopropane-1-carboxamide]	0.0813
Cn1cc(C(=O)Nc2cc3cc(C4CCN([C@]5(C)COC[C@@H]5O)CC4)c(Cl)cc3cn2)cn1 (single isomer, unassigned) [Ex-12.6, N-(7-chloro-6-(1-(4-hydroxy-3-methyltetrahydrofuran-3-yl)piperidin-4-yl)isoquinolin-3-yl)-1-methyl-1H-pyrazole-4-carboxamide]	0.776
CC1CC(C(=O)Nc2cc3cc(C4CCN(C5(C)COC5)CC4)c(Cl)cc3cn2)C1 (racemic) [Ex-1.16, Rac-N-(7-chloro-6-(1-(3-methyloxetan-3-yl)piperidin-4-yl)isoquinolin-3-yl)-3-methylcyclobutane-1-carboxamide]	5.5
CC1(N2CCC(c3cc4cc(NC(=O)c5cnn(C6CC6)c5Cl)ncc4cc3Cl)CC2)COCC1O (single isomer, unassigned) [Ex-1.50, 5-chloro-N-(7-chloro-6-(1-((3R,4R or 3S,4S)-4-hydroxy-3-methyltetrahydrofuran-3-yl)piperidin-4-yl)isoquinolin-3-yl)-1-cyclopropyl-1H-pyrazole-4-carboxamide]	0.0813
Cn1cc(C2CC2C(=O)Nc2cc3cc(C4CCC(N5CC(F)C5)CC4)c(Cl)cc3cn2)cn1 (single isomer, unassigned) [Ex-5.8, N-(7-cchloro-6-(4-(3-fluoroazetidin-1-yl)cyclohexyl)isoquinolin-3-yl)-2-(1-methyl-1H-pyrazol-4-yl)cyclopropane-1-carboxamide]	8.71
CCC1C(C(=O)Nc2cc3cc(C(C)CC#N)c(Cl)cc3cn2)C1c1cnn(C)c1 (single isomer, unassigned) [Ex-9.16, N-(7-chloro-6-(1-cyanopropan-2-yl)isoquinolin-3-yl)-2-ethyl-3-(1-methyl-1H-pyrazol-4-yl)cyclopropane-1-carboxamide]	1.82
CC1(N2CCC(c3cc4cc(NC(=O)C5C6CCCOC65)ncc4cc3Cl)CC2)COCC1O (single isomer, unassigned) [Ex-4.13, N-(7-chloro-6-(1-(4-hydroxy-3-methyltetrahydrofuran-3-yl)piperidin-4-yl)isoquinolin-3-yl)-2-oxabicyclo[4.1.0]heptane-7-carboxamide]	0.182
CC1(C)CC(C(=O)Nc2cc3cc(C4CCC(N5CCC(F)C5)CC4)c(Cl)cc3cn2)CCO1 (single isomer, unassigned) [Ex-5.9, N-(7-chloro-6-(4-(3-fluoropyrrolidin-1-yl)cyclohexyl)isoquinolin-3-yl)-2,2-dimethyltetrahydro-2H-pyran-4-carboxamid]	1.78
N#CC1(c2ccc3cnc(NC(=O)C4CC45CCOC5)cc3c2)CC12CC2 (stereo not shown) [Ex-2.66]	14.5
CC1(N2CCC(c3cc4cc(NC(=O)C5CCC5c5ccccn5)ncc4cc3Cl)CC2)COCC1O (single isomer, unassigned) [Ex-4.74, N-(7-chloro-6-(1-(4-hydroxy-3-methyltetrahydrofuran-3-yl)piperidin-4-yl)isoquinolin-3-yl)-2-(pyridin-2-yl)cyclobutane-1-carboxamide]	1780
CC1(C)CC1(C#N)c1ccc2cnc(NC(=O)C3CC3)cc2c1 (single isomer, unassigned) [Ex-18.4, (R or S)-N-(6-(1-cyano-2,2-dimethylcyclopropyl)isoquinolin-3-yl)cyclopropanecarboxamide]	61.7
O=C(Nc1cc2cc(C3C4CCOCC43)c(Cl)cc2cn1)C1CC12CCOCC2 (single isomer, unassigned) [Ex-9.24, N-(6-(3-oxabicyclo[4.1.0]heptan-7-yl)-7-chloroisoquinolin-3-yl)-6-oxaspiro[2.5]octane-1-carboxamide]	6.61
CCC1C(C(=O)Nc2cc3cc(C4CC45CC5)c(Cl)cc3cn2)C1c1cnn(C)c1 (stereo not shown) [Ex-2.99]	117
CC1COCC1(C)N1CCC(c2cc3cc(NC(=O)C4CC45CCOCC5)ncc3cc2Cl)CC1 (single isomer, unassigned) [Ex-6.9, N-(7-chloro-6-(1-(3,4-dimethyltetrahydrofuran-3-yl)piperidin-4-yl)isoquinolin-3-yl)-6-oxaspiro[2.5]octane-1-carboxamide]	0.813
CC1C(C(=O)Nc2cc3cc(C4CCN(C5COC5)CC4)c(Cl)cc3cn2)C1(F)F (racemic) [Ex-1.6, Rac-N-(7-chloro-6-(1-(oxetan-3-yl)piperidin-4-yl)isoquinolin-3-yl)-2,2-difluoro-3-methylcyclopropane-1-carboxamide]	1.86
CC1(N2CCC(c3cc4cc(NC(=O)c5cnn(C67CC(C6)C7)c5)ncc4cc3Cl)CC2)COCC1F (single isomer, unassigned) [Ex-1.53, 1-(bicyclo[1.1.1]pentan-1-yl)-N-(7-chloro-6-(1-((3R,4R or 3S,4S)-4-fluoro-3-methyltetrahydrofuran-3-yl)piperidin-4-yl)isoquinolin-3-yl)-1H-pyrazole-4-carboxamide]	0.676
N#CC1(c2ccc3cnc(NC(=O)C4CC4c4cccnc4)cc3c2)CC12CC2 (stereo not shown) [Ex-2.46]	0.851
CC1(N2CCC(c3cc4cc(NC(=O)C5CC56CCOCC6)ncc4cc3F)CC2)COCC1O (single isomer, unassigned) [Ex-8.3, N-(7-fluoro-6-(1-(4-hydroxy-3-methyltetrahydrofuran-3-yl)piperidin-4-yl)isoquinolin-3-yl)-6-oxaspiro[2.5]octane-1-carboxamide]	0.195
CC1(N2CCC(c3cc4cc(NC(=O)C5CC5c5ccccn5)ncc4cc3Cl)CC2)CCOC1 (single isomer, unassigned) [Ex-6.32, N-(7-chloro-6-(1-(3-methyltetrahydrofuran-3-yl)piperidin-4-yl)isoquinolin-3-yl)-2-(pyridin-2-yl)cyclopropane-1-carboxamide]	5.62
O=C(Nc1cc2cc(C3CCN(C4COC4)CC3)c(Cl)cc2cn1)[C@H]1C[C@H]1F [Ex-1.13, (1R,2R)-N-(7-chloro-6-(1-(oxetan-3-yl)piperidin-4-yl)isoquinolin-3-yl)-2-fluorocyclopropane-1-carboxamide]	2.45
CCC(=O)N1CCC(C(C)C(=O)Nc2cc3cc(C4(C#N)CC45CC5)ccc3cn2)CC1 (stereo not shown) [Ex-2.112]	135
CC(C(=O)Nc1cc2cc(C3CCN(C4(C)CCOC4O)CC3)c(Cl)cc2cn1)C1CCOCC1 (stereo not shown) [Ex-2.104]	0.661
CC1(C)CC(C(=O)Nc2cc3cc(C4CCN(C5(C)COCC5F)CC4)c(Cl)cc3cn2)CCO1 (single isomer, unassigned) [Ex-6.39, N-(7-chloro-6-(1-(4-fluoro-3-methyltetrahydrofuran-3-yl)piperidin-4-yl)isoquinolin-3-yl)-2,2-dimethyltetrahydro-2H-pyran-4-carboxamide]	89.1
